Data as given in patent US11938121B2, “Treatment of infections and biofilm formation using a cellulose synthase inhibitor” (Purdue Research Foundation, priority 2020, dated 2024).
Where two headings read alike, the source gives them in different places.

How the values were obtained:
[1] = target: T1, GFP-CESA6c (central cytosolic domain of AtCESA6) (Arabidopsis thaliana, UniProt Q94JQ6); experiment: MST assay with GFP-CESA6c; format: binding; settings: for interaction with CESA6c: 100 nM GFP-CESA6c
T1 construct: made in house; host or cells: E. coli
From the text: To obtain the central cytosolic domain of AtCESA6 for the MST assay, we inserted the GFP coding sequence into the SacI and PstI restriction enzyme sites of the pRSF-Duet-1 vector (Huang et al., 2020). The GFP coding sequence was amplified from the pUBN-GFP-DEST vector. The sequence encoding the central cytosolic domain of CESA6 (CESA6c) was amplified from Col-0 cDNA and fused with GFP at the C-terminus. CESA6c construct was used as a template for creating CESA6c^P595S construct by site-directed mutagenesis. Protein purification was performed as previously described (Huang et al., 2020).
MST assays were carried out using a Monolith NT.115 (NanoTemper) machine at the Chemical Genomics Facility at Purdue University. […] The ES20-1 was dissolved in DMSO, and the final concentration of DMSO was 5% (vol/vol). MST standard capillaries were used to load the samples into the MST instrument. Triplicate reactions were performed for each test. The MST data were processed using MO. Affinity Analysis Version 2.3 software.

[2] = system: AtCESA6 (cesa6 alleles es20r1-es20r15); experiment: Root growth of EMS-induced cesa6 mutants es20r1-es20r15 on ES20 analogs; format: in vivo, Arabidopsis thaliana; settings: compared with wild-type/control plants
From the text: A subset of active ES20 analogs likely target the catalytic domain of AtCESA6. […] Since ES20 and the nine active ES20 analogs share highly similar structures, we reasoned whether these active analogs target AtCESA6 as well. We therefore examined the growth of es20r1-es20r15 plants in the presence of nine active ES20 analogs compared to wild-type plants.
(§1) To test the inhibitory effects of different chemicals on plant growth, wild-type Arabidopsis Col-0 plants were used. The seeds of plants used for growth assays or live cell imaging were sequentially sterilized with 50% bleach and 75% ethanol. […] To quantify the inhibitory effects of different ES20 active analogs on the root growth of Arabidopsis wildtype, EMS mutants, and transgenic plants expressing mutated AtCESA6 in prc1-1 background, sterilized Col-0, mutants, and transgenic plants seeds were sown on gridded Petri plates containing ½-strength MS medium supplemented with different concentrations of ES20 analogs. […] The plates were scanned using an Epson Perfection V550 scanner after 7 days of growth, and the root lengths of plants were quantified using ImageJ software. […] The Petri dishes were scanned, and hypocotyl length was measured using ImageJ. Transgenic plants expressing fluorescence-tagged PIN2, PIP2a, HDEL, VHA-a1, and GOT1p were as reported previously (Xu and Scheres, Plant Cell, 2005, 17, 525-536).

[3] = system: AtCESA6 carrying missense mutations in prc1-1; experiment: Root growth of transgenic plants expressing mutated AtCESA6 in prc1-1; format: in vivo, Arabidopsis thaliana; settings: D562N, D564N, D785N, Q823E, R826A, W827A in prc1-1
From the text: We then examined whether transgenic plants expressing AtCESA6 with predicted missense mutations at the catalytic site in prc1-1 background would have altered sensitivity to active ES20 analogs. […] However, the responses of two transgenic lines expressing AtCESA6 carrying missense mutations outside of the catalytic site (L365F and D395N) to nine active ES20 analogs were similar to those of wild-type plants (FIG. 2B).
as §1, with “Transgenic plants expressing fluorescence-tagged PIN2, PIP2a, HDEL, VHA-a1, and GOT1p were as reported previously (Xu and Scheres, Plant Cell, 2005, 17, 525-536).” left out

[4] = target: T2, GFP-CESA6c: GFP-tagged central cytosolic domain of AtCESA6 (cellulose synthase, CESA6) with a His-SUMO tag (Arabidopsis thaliana, UniProt Q94JQ6); experiment: Microscale thermophoresis (MST) binding to purified GFP-tagged CESA6c (wild-type); settings: read-out: Kd, thermophoresis binding curve, GFP-CESA6c
T2 construct: His-SUMO; made in house; host or cells: E. coli
T2 sequence (Q94JQ6 322-868 limits assumed): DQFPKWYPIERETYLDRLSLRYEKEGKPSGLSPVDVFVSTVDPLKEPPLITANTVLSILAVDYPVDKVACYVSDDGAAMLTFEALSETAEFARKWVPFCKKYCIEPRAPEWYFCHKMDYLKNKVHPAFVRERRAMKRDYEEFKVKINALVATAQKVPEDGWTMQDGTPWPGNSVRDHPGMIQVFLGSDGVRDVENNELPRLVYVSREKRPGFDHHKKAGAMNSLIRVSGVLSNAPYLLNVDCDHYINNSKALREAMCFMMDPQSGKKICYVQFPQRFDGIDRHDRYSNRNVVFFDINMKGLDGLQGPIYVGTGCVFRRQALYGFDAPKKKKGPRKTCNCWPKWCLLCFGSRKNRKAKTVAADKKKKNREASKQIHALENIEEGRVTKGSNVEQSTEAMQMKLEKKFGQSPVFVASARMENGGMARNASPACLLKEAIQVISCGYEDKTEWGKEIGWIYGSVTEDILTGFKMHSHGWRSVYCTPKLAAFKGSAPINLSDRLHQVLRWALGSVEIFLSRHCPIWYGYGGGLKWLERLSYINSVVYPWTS
From the text: FIGS. 3A-3Q. […] FIG. 3A to FIG. 3G. […] FIG. 3A. Representative 5-day-old dark-grown Arabidopsis Col-0 seedlings grown on growth medium supplemented with different concentrations of ES20 or ES20-1. Scale bar: 1 cm. FIG. 3B. Quantification of hypocotyl length of 5-day-old dark-grown Arabidopsis Col-0 seedlings described in FIG. 3A. Data represent mean±SD (n=12 seedlings). FIG. 3C. Quantification of crystalline cellulose content in the hypocotyl cell walls of 7-day-old dark-grown Col-0 seedlings grown on growth medium supplemented with DMSO (0.1%), 1 μM ES20, or 1 μM ES20-1. Data represent mean±SD (n=3 biological replicates). FIG. 3D and FIG. 3E. […] FIG. 3D. Representative image of 6-day-old rice seedlings grown in sterile water supplemented with DMSO (0.1%), 20 μM ES20, or 20 μM ES20-1. Scale bar: 1 cm. FIG. 3E. Quantification of root length of rice seedlings as described in FIG. 3D. Data represent mean±SD (n=10 seedlings). FIG. 3F and FIG. 3G. […] FIG. 3F. Representative image of 6-day-old maize seedlings grown in sterile water supplemented with DMSO (0.1%), 20 μM ES20, or 20 μM ES20-1. Scale bar: 1 cm. FIG. 3G. Quantification of root length of maize seedlings as described in FIG. 3F. Data represent mean±SD (n=12 seedlings). […] FIG. 3H. Representative immunoblot from a DARTS assay of ES20-1 and YFP-AtCESA6. FIG. 3I. Quantitative analysis of the band intensity of YFP-AtCESA6 and SEC12 in ES20-1-treated samples divided by that of DMSO-treated samples in the DARTS assay described in FIG. 3H. Data represent mean±SD (n=6 biological replicates). FIGS. 3J-3N. […] FIG. 3J. Coomassie blue staining of purified GFP-tagged CESA6c with a His-SUMO tag (lane 2). FIGS. 3K, 3L, 3M, 3N. […] FIG. 3O. Coomassie blue staining of purified GFP-tagged CESA6c^P595S with a His-SUMO tag (lane 2). FIG. 3P and FIG. 3Q. […] Statistically significant differences in FIG. 3B were determined using one-way ANOVA followed by Tukey's multiple comparisons test. Lower-case letters represent ANOVA results for plants grown on medium with 0.1% DMSO, different concentrations of ES20 or ES20-1. […]

[5] = target: T3, GFP-CESA6c^P595S: GFP-tagged central cytoplasmic domain of AtCESA6 (cellulose synthase, CESA6) carrying missense mutation P595S, with a His-SUMO tag (Arabidopsis thaliana, UniProt Q94JQ6, P595S); experiment: Microscale thermophoresis (MST) binding to purified GFP-tagged CESA6c^P595S (missense mutant)
T3 construct: We purified AtCESA6 central cytoplasmic domain carrying missense mutation P595S (CESA6c^P595S); His-SUMO; made in house; host or cells: E. coli
From the text: FIGS. 3A-3Q. […] FIG. 3A to FIG. 3G. […] FIG. 3A. Representative 5-day-old dark-grown Arabidopsis Col-0 seedlings grown on growth medium supplemented with different concentrations of ES20 or ES20-1. Scale bar: 1 cm. FIG. 3B. Quantification of hypocotyl length of 5-day-old dark-grown Arabidopsis Col-0 seedlings described in FIG. 3A. Data represent mean±SD (n=12 seedlings). FIG. 3C. Quantification of crystalline cellulose content in the hypocotyl cell walls of 7-day-old dark-grown Col-0 seedlings grown on growth medium supplemented with DMSO (0.1%), 1 μM ES20, or 1 μM ES20-1. Data represent mean±SD (n=3 biological replicates). FIG. 3D and FIG. 3E. […] FIG. 3D. Representative image of 6-day-old rice seedlings grown in sterile water supplemented with DMSO (0.1%), 20 μM ES20, or 20 μM ES20-1. Scale bar: 1 cm. FIG. 3E. Quantification of root length of rice seedlings as described in FIG. 3D. Data represent mean±SD (n=10 seedlings). FIG. 3F and FIG. 3G. […] FIG. 3F. […] Quantification of root length of maize seedlings as described in FIG. 3F. […] Quantitative analysis of the band intensity of YFP-AtCESA6 and SEC12 in ES20-1-treated samples divided by that of DMSO-treated samples in the DARTS assay described in FIG. 3H. […] Statistically significant differences in FIG. 3B were determined using one-way ANOVA followed by Tukey's multiple comparisons test. […]

| SMILES | interaction with CESA6c [1] | relative binding affinity to CESA6c ([1]; MST) | sensitivity of es20r1-es20r15 mutants in growth [2] | sensitivity of transgenic lines with AtCESA6 catalytic site mutations [3] | Kd ([4]; FIG. 3N, GFP-CESA6c purified from E. coli, pH 7.5, 10 mM MgCl2, 0.05% Tween 20, triplicate) [µM] | Kd ([4]; FIGS. 3K-3M, 100 nM GFP-CESA6c purified from E. coli, pH 7.5, 10 mM MgCl2, 0.05% Tween 20, 5% DMSO, triplicate) [µM] | Kd [5] [µM] |
| --- | --- | --- | --- | --- | --- | --- | --- |
| Cc1cccnc1NC(=S)NC(=O)c1cccc([N+](=O)[O-])c1C [ES20-9] | also interacts | slightly lower than ES20-1 | 14 out of 15 mutants except es20r13 show reduced sensitivity | Reduced sensitivity | 5.1 ± 4.8 | – | – |
| COc1ccc(C(=O)NC(=S)NNC(=O)c2ccccc2C)cc1 [ES20] | – | – | – | – | – | 9.7 ± 3.3 | 24.5 ± 26.9 |
| CC1(C)S[C@@H]2[C@H](NC(=O)[C@H](N)c3ccccc3)C(=O)N2[C@H]1C(=O)O [ampicillin, reference compound] | did not interact | – | – | – | – | – | – |
